Common to all, as to format: biochemical
Experiment [1] has as its target T1, human macrophage elastase (HME/hMMP-12) (Homo sapiens, UniProt P39900).
T1 construct: purchased R&D Systems 917-MP
The experiment can be described thus: In vitro HME inhibition test (standard or high-sensitivity). Particulars: in some cases mean values, rounded to two significant figures. Put shortly:
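Autoactivated HME (0.5 nM; high-sensitivity format 0.05 nM, ~16 h) with 5 μM quenched Mca-PLGLEEA-Dap(Dnp)-NH2 substrate in HEPES pH 7.4, NaCl, CaCl2, ZnCl2, EDTA, Brij buffer, 2 h at 37° C. Fluorescence at ex 323/em 393 nm; IC50 from signal versus concentration.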

Another experiment addresses T2, MMP-14 (Homo sapiens, UniProt P50281).
T2 construct: purchased R&D Systems 918-MP
Kind of experiment: In vitro MMP-14 inhibition test. Particulars: human MMP-14. The source says:
(§1) The MMP-mediated amidolytic cleavage of a suitable peptide substrate leads to an increase in fluorescent light here too. The signal intensity of the fluorescent light is directly proportional to the enzyme activity. The active concentration of a test compound at which half the enzyme is inhibited (50% signal intensity of the fluorescent light) is reported as the IC50 value.
Recombinant MMP-14 (R&D Systems, 918-MP) is enzymatically activated in accordance with the manufacturer's instructions using recombinant furin (R&D Systems, 1503-SE). 1 μl of the test compound to be analysed (as a solution in DMSO, suitable concentrations e.g. 1 nM to 30 μM) is pipetted into 24 μl of activated enzyme (final concentration e.g. 0.5 nM) in reaction buffer (50 mM Tris/HCl pH 7.5, 10 mM CaCl2, 150 mM NaCl, 0.05% Brij®-35) in a white 384-hole microtiter plate (MTP). The enzymatic reaction is started by adding the intramolecularly quenched Mca-Lys-Pro-Leu-Gly-Leu-Dpa(Dnp)-Ala-Arg-NH2 substrate (final concentration e.g. 5 μM; R&D Systems, ES-010), so as to result in a total test volume of 50 μl. The course of the MMP-14 reaction is measured by measuring the fluorescence intensity (excitation 320 nm, emission 410 nm) over a suitable period of time (e.g. over 120 min at a temperature of 32° C.).

The target of a further experiment is T3, MMP-8 (Homo sapiens, UniProt P22894).
T3 construct: purchased R&D Systems 908-MP
T3 sequence (P22894 101-467): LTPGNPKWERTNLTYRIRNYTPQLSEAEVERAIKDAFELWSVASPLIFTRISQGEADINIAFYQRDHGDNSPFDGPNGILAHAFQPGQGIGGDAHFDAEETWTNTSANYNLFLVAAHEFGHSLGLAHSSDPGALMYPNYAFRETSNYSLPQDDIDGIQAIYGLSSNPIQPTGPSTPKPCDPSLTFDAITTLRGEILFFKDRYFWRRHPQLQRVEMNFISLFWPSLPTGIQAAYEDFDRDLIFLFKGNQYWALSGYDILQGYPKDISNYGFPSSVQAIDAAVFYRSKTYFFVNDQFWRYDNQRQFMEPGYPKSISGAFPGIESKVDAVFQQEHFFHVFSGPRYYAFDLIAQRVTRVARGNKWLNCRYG
Kind of experiment: In vitro MMP-8 inhibition test. The following applies: human MMP-8.
Text: as §1
Recombinant MMP-8 (R&D Systems, 908-MP) is chemically activated in accordance with the manufacturer's instructions using APMA. 1 μl of the test compound to be analysed (as a solution in DMSO, suitable concentrations e.g. 1 nM to 30 μM) is pipetted into 24 μl of activated enzyme (final concentration e.g. 0.5 nM) in reaction buffer (50 mM Tris/HCl pH 7.5, 10 mM CaCl2, 150 mM NaCl, 0.05% Brij®-35) in a white 384-hole microtiter plate (MTP). The enzymatic reaction is started by adding the intramolecularly quenched Mca-Pro-Leu-Gly-Leu-Dpa(Dnp)-Ala-Arg-NH2 substrate (final concentration e.g. 10 μM; R&D Systems, ES-001), so as to result in a total test volume of 50 μl. The course of the MMP-8 reaction is measured by measuring the fluorescence intensity (excitation 320 nm, emission 410 nm) over a suitable period of time (e.g. over 120 min at a temperature of 32° C.).

SMILES strings stand for the structures.

T1 sequence (P39900 106-470): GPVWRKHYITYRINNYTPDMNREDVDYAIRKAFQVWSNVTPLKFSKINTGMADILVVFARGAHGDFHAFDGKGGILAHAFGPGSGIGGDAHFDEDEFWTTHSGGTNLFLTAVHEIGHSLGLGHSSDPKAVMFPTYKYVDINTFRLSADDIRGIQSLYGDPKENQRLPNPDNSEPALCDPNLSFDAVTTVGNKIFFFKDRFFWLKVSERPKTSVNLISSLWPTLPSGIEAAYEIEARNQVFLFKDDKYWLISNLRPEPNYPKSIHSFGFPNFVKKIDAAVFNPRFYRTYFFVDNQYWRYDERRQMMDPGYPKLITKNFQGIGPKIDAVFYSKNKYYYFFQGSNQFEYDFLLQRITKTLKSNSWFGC

On to `O=C(CC(CCn1nnc2ccccc2c1=O)C(=O)O)c1coc2cc(OCCC3CCOCC3)ccc12` (racemic) [Example 74, (+/−)-4-Oxo-2-[2-(4-oxo-1,2,3-benzotriazin-3(4H)-yl)ethyl]-4-{6-[2-(tetrahydro-2H-pyran-4-yl)ethoxy]-1-benzofur-3-yl}butanoic acid], for which the concentration for half-maximal inhibition (IC50) – broadly, the midpoint of a concentration-inhibition curve – in experiment [1] worked out at 0.18 nM; on MMP-14, 1400 nM; on MMP-8 it was 370 nM.
For `O=C(CC(CCn1nnc2ccccc2c1=O)C(=O)O)c1cc2cc(OCCCc3ccccc3)ccc2o1` (racemic) [Example 37, (+/−)-4-Oxo-2-[2-(4-oxo-1,2,3-benzotriazin-3(4H)-yl)ethyl]-4-[5-(3-phenylpropoxy)-1-benzofur-2-yl]butanoic acid] the same measures were 4.6 nM, greater than 40000 nM and 12000 nM.
For `CCCCCOc1ccc2c(C(=O)CC(CCn3nnc4ccccc4c3=O)C(=O)O)coc2c1` (racemic) [Example 89, (+/−)-4-Oxo-2-[2-(4-oxo-1,2,3-benzotriazin-3(4H)-yl)ethyl]-4-[6-(pentyloxy)-1-benzofur-3-yl]butanoic acid], the half-maximal inhibitory concentration (IC50) was 0.35 nM in experiment [1], 13000 nM on MMP-14 and 6700 nM at MMP-8.
Turning to `O=C(CC(CCn1nnc2ccccc2c1=O)C(=O)O)c1cc2cc(OCC3CCCCC3)ccc2o1` (racemic) [Example 8, (+/−)-4-[5-(Cyclohexylmethoxy)-1-benzofur-2-yl]-4-oxo-2-[2-(4-oxo-1,2,3-benzotriazin-3(4H)-yl)ethyl]butanoic acid], the IC50 in experiment [1] was 2 nM; on MMP-14, greater than 40000 nM; against MMP-8, 30000 nM.
Turning to `Cc1cccc(COc2ccc3oc(C(=O)CC(CCn4nnc5ccccc5c4=O)C(=O)O)cc3c2)c1` (racemic) [Example 51, (+/−)-4-{5-[(3-Methylbenzyl)oxy]-1-benzofur-2-yl}-4-oxo-2-[2-(4-oxo-1,2,3-benzotriazin-3(4H)-yl)ethyl]butanoic acid], the IC50 is 4.1 nM in experiment [1], greater than 40000 nM at MMP-14 and 34000 nM at MMP-8.
For `CCCOc1ccc2cc(C(=O)CC(CCn3nnc4ccccc4c3=O)C(=O)O)oc2c1` (racemic) [Example 58, (+/−)-4-Oxo-2-[2-(4-oxo-1,2,3-benzotriazin-3(4H)-yl)ethyl]-4-(6-propoxy-1-benzofur-2-yl)butanoic acid], the figures for the IC50 (in experiment [1]; against MMP-14; against MMP-8) were 5 nM, 2200 nM and 10000 nM, respectively.
As for `O=C(CC(CCn1nnc2ccccc2c1=O)C(=O)O)c1cc2ccc(OCCCC3CCCCC3)cc2o1` (racemic) [Example 71, (+/−)-4-[6-(3-Cyclohexylpropoxy)-1-benzofur-2-yl]-4-oxo-2-[2-(4-oxo-1,2,3-benzotriazin-3(4H)-yl)ethyl]butanoic acid], the figures for the 50% inhibitory concentration (IC50) (in experiment [1]; against MMP-14; against MMP-8) were 2.2 nM, greater than 40000 nM and greater than 40000 nM, respectively.
As for `CCCCCCCOc1ccc2cc(C(=O)CC(CCn3nnc4ccccc4c3=O)C(=O)O)oc2c1` (single isomer, unassigned; (+)) [Example 69, (+)-4-[6-(Heptyloxy)-1-benzofur-2-yl]-4-oxo-2-[2-(4-oxo-1,2,3-benzotriazin-3(4H)-yl)ethyl]butanoic acid acid], the figures for the IC50 (in experiment [1]; at MMP-14; on MMP-8) were 1 nM, greater than 40000 nM and greater than 40000 nM, respectively.
As to `CCCCCOc1ccc2cc(C(=O)CC(CCn3nnc4ccccc4c3=O)C(=O)O)sc2c1` (racemic) [Example 118, (+/−)-4-Oxo-2-[2-(4-oxo-1,2,3-benzotriazin-3(4H)-yl)ethyl]-4-[6-(pentyloxy)-1-benzothiophen-2-yl]butanoic acid], the IC50 in experiment [1] stood at 2.7 nM; against MMP-14, 19000 nM; at MMP-8, 9300 nM.
In the same order, the values of `NC(=O)c1cccc(COc2ccc3oc(C(=O)CC(CCn4nnc5ccccc5c4=O)C(=O)O)cc3c2)c1` (single isomer, unassigned; (+)) [Example 34, (+)-4-{5-[(3-Carbamoylbenzyl)oxy]-1-benzofur-2-yl}-4-oxo-2-[2-(4-oxo-1,2,3-benzotriazin-3(4H)-yl)ethyl]butanoic acid] are 1.1 nM, 7900 nM and 4900 nM.
On to `O=C(CC(CCn1nnc2ccccc2c1=O)C(=O)O)c1noc2cc(OCc3cccnc3)ccc12` (racemic) [Example 148, (+/−)-4-Oxo-2-[2-(4-oxo-1,2,3-benzotriazin-3(4H)-yl)ethyl]-4-[6-(pyridin-3-ylmethoxy)-1,2-benzoxazol-3-yl]butanoic acid], for which the IC50 in experiment [1] worked out at 1.8 nM; at MMP-14 it was 8500 nM; against MMP-8 it was 270 nM.
For `CCCCCOc1ccc2c(C(=O)CC(CCn3nnc4ccccc4c3=O)C(=O)O)coc2c1` (single isomer, unassigned) [Example 91, 4-Oxo-2-[2-(4-oxo-1,2,3-benzotriazin-3(4H)-yl)ethyl]-4-[6-(pentyloxy)-1-benzofur-3-yl]butanoic acid] the same measures were 0.23 nM, 4000 nM and 940 nM.
As to `O=C(CC(CCn1nnc2ccccc2c1=O)C(=O)O)c1cc2ccc(OCC3CC3)cc2s1` (racemic) [Example 111, (+/−)-4-[6-(Cyclopropylmethoxy)-1-benzothiophen-2-yl]-4-oxo-2-[2-(4-oxo-1,2,3-benzotriazin-3(4H)-yl)ethyl]butanoic acid], the half-maximal inhibitory concentration (IC50) in experiment [1] came to 3.3 nM; against MMP-14, 6000 nM; against MMP-8, 460 nM.
`CCCCCCCOc1ccc2c(C(=O)CC(CCn3nnc4ccccc4c3=O)C(=O)O)coc2c1` (racemic) [Example 101, (+/−)-4-[6-(Heptyloxy)-1-benzofur-3-yl]-4-oxo-2-[2-(4-oxo-1,2,3-benzotriazin-3(4H)-yl)ethyl]butanoic acid]: the figures for the IC50 (in experiment [1]; against MMP-14; against MMP-8) were 0.53 nM, greater than 40000 nM and 12000 nM, respectively.
With `O=C(CC(CCn1nnc2ccccc2c1=O)C(=O)O)c1onc2cc(OCc3ccccc3)ccc12` (racemic) [Example 156, (+/−)-4-[6-(Benzyloxy)-2,1-benzoxazol-3-yl]-4-oxo-2-[2-(4-oxo-1,2,3-benzotriazin-3(4H)-yl)ethyl]butanoic acid], the results for the IC50 (in experiment [1]; against MMP-14; on MMP-8) were 2.4 nM, 9300 nM and 2800 nM, respectively.
Consider `O=C(CC(CCn1nnc2ccccc2c1=O)C(=O)O)c1cc2cc(OCc3ccccc3)ccc2o1` (single isomer, unassigned; (+)) [Example 30, (+)-4-[5-(Benzyloxy)-1-benzofur-2-yl]-4-oxo-2-[2-(4-oxo-1,2,3-benzotriazin-3(4H)-yl)ethyl]butanoic acid], for which the values for the half-inhibitory concentration (IC50) (in experiment [1]; against MMP-14; against MMP-8) were 0.99 nM, 31000 nM and 32000 nM, respectively.
As for `O=C(CC(CCn1nnc2ccccc2c1=O)C(=O)O)c1cc2cc(OCc3cccc(Cl)c3)ccc2o1` (racemic) [Example 50, (+/−)-4-{5-[(3-Chlorobenzyl)oxy]-1-benzofur-2-yl}-4-oxo-2-[2-(4-oxo-1,2,3-benzotriazin-3(4H)-yl)ethyl]butanoic acid], the figures for the half-inhibitory concentration (IC50) (in experiment [1]; against MMP-14; against MMP-8) were 1.6 nM, greater than 40000 nM and 36000 nM, respectively.
With `O=C(CC(CCn1nnc2ccccc2c1=O)C(=O)O)c1cc2cc(OCCc3ccccc3Cl)ccc2o1` (racemic) [Example 1, (+/−)-4-{5-[2-(2-Chlorophenyl)ethoxy]-1-benzofur-2-yl}-4-oxo-2-[2-(4-oxo-1,2,3-benzotriazin-3(4H)-yl)ethyl]butanoic acid], the half-inhibitory concentration (IC50) is 2.6 nM in experiment [1], greater than 40000 nM at MMP-14 and greater than 40000 nM at MMP-8.
`CCCCCCCOc1ccc2oc(C(=O)CC(CCn3nnc4ccccc4c3=O)C(=O)O)cc2c1` (racemic) [Example 31, (+/−)-4-[5-(Heptyloxy)-1-benzofur-2-yl]-4-oxo-2-[2-(4-oxo-1,2,3-benzotriazin-3(4H)-yl)ethyl]butanoic acid]: the IC50 in experiment [1] was 4.8 nM; against MMP-14 it was greater than 40000 nM; against MMP-8, 35000 nM.

For the origin of these results see patent US20170121315A1, “HETEROBICYCLICALLY SUBSTITUTED 4-OXOBUTANE ACID DERIVATIVES AND USE THEREOF” (priority 2014, published 2017).
